The values below come from patent publication US6458778B1, “Estradienes” (Wyeth, priority 1997, dated 2002).

In one assay the test system is Immature rats. As to the kind of experiment: In vivo uterotropic activity. The following applies: for Uterine Weight (mg) ± SD: immature rats; for estrogenic activity in vivo (in words): uterine stimulation compared with vehicle.
For assay [1], the target named is T1, human estrogen receptor (hER-α) (Homo sapiens, UniProt P03372).
T1 sequence (P03372 1-595): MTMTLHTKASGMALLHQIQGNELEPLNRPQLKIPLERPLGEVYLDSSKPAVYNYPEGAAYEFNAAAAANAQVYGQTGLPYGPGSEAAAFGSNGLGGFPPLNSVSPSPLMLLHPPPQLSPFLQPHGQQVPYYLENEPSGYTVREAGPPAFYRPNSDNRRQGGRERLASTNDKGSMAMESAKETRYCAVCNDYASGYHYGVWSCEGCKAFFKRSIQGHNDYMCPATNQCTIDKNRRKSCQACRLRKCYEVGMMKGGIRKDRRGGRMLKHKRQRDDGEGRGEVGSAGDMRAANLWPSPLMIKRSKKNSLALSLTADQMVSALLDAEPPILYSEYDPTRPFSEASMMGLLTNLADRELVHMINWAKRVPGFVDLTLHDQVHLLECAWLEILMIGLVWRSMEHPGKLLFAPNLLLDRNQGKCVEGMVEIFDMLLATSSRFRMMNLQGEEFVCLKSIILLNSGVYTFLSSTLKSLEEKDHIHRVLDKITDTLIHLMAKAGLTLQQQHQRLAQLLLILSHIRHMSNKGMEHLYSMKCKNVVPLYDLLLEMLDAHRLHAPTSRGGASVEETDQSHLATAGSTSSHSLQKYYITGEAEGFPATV
Nature of the assay: Estrogen receptor binding, whole cell test procedure. The note with it: Ki of 5B estimated.

pKi: −log10 of the molar value.

Take `C[C@]12CC[C@H]3C(=CCC4=C3CC[C@@H](O)C4)[C@@H]1CCC2=O` [5A, estra-5(10),7-dien-3α-ol-17-one]: the “Uterine Weight (mg) ± SD” value with Immature rats (1 μg, three days S.C.) was 28.7 ± 2.7 mg; in the assay with Immature rats (10 μg, three days S.C.), 33.3 ± 4.4 mg; in the assay on Immature rats (100 μg, three days S.C.), 66.5 ± 4.7 mg; in the assay on Immature rats (500 μg, three days S.C.), 78.9 ± 13.6 mg. In the assay on Immature rats (in words, relative to approximately 30 μg/rat or 0.6 mg/kg for 5B), the “estimated EC50 compared with 5B” value is reported as “somewhat lower”. Further, in the assay with Immature rats, the “estrogenic activity in vivo (in words)” value is listed as “significant estrogenic activity”.
On to `C[C@]12CC[C@H]3C(=CCC4=C3CC[C@H](O)C4)[C@@H]1CCC2=O` [5B, estra-5(10),7-dien-3β-ol-17-one], for which the “Uterine Weight (mg) ± SD” value worked out at 34.1 ± 6.2 mg in the assay with Immature rats (0.1 μg, three days S.C.); 31.7 ± 6.6 mg with Immature rats (1 μg, three days S.C.); 43.5 ± 6.9 mg in the assay on Immature rats (10 μg, three days S.C.); 79.7 ± 5.8 mg in the assay with Immature rats (100 μg, three days S.C.); 82.6 ± 8.6 mg in the assay on Immature rats (500 μg, three days S.C.). The “estrogenic activity in vivo (in words)” value in the assay on Immature rats is reported as “significant estrogenic activity”.
Consider `C#C[C@]1(O)CC[C@H]2[C@@H]3CCc4cc(O)ccc4[C@H]3CC[C@@]21C` [Ethinyl Estradiol, ethinyl estradiol, reference compound], for which the “Uterine Weight (mg) ± SD” value with Immature rats (0.5 μg, three days, positive control) is 101.2 ± 2.8 mg.
With `C[C@]12CCc3c(ccc4cc(O)ccc34)[C@@H]1CCC2=O` [equilenen], the pKi (usually the negative decadic logarithm of the Ki, by convention in mol/L) in assay [1] is 6.43.
As to `C[C@]12CC[C@@H]3c4ccc(O)cc4CC[C@H]3[C@@H]1CCC2=O` [estrone, reference compound], the EC50 estimated in the assay on Immature rats (in similar test procedures) is 0.2 mg/kg.
